Experimental findings from patent US20260327628A1, “AN RNA APTAMER THAT BINDS TO ASP7967 OR AN ANALOGUE THEREOF” (priority 2022, published 2026) are described below.

The target of one assay is AC17-4 RNA aptamer. Kind of assay: Affinity measurement by SPR, AC17-4 immobilized chip. As to conditions: for Kd: 25 °C; for affinity for AC17-4 (in words): ASP2905 versus ASP7967. The class given is binding. The protocol:
Affinity measurements of the aptamers with the ligands by SPR were performed as described by Chang et al.^53 with some modifications. Experiments were performed on Biacore T200 (Cytiva) at 25° C. For immobilization of the capture DNA (5′-/5AmMC6/[…]-3′ (SEQ ID NO: 32),/5AmMC6/: 5′ amino modifier C6, IDT), 1×HBS-N (10 mM HEPES, pH 7.4, 150 mM NaCl) was used as the running buffer. CM5 chip surface was washed by two injections of NaOH/NaCl solution (25 mM NaOH, 1 M NaCl) at 20 μl min^−1 for 30 s. Next, a solution containing 200 mM 1-ethyl-3-(3-dimethylaminopropyl) carbodiimide hydrochloride (EDC) and 50 mM N-hydroxysuccinimide (NHS) was injected into all flow cells at 10 μl min^−1 for 7 min to activate the surface carboxylic acid groups. Then, the capture DNA (20 μM) in 10 mM HEPES-KOH buffer (pH 7.5) supplemented with 0.6 mM cetyltrimethylammonium bromide was injected at 5 μl min^−1 for 10 min. The unreacted activated carboxylic acid groups were quenched by an injection of 1 M ethanolamine-HCl (pH 8.5) for 7 min at 10 μl min^−1. To remove the noncovalently adsorbed DNA on the chip surface, NaOH/NaCl solution was injected two times at 20 μl min^−1 for 30 s. The immobilized DNA levels were 2846±284 RU.
The dsDNA templates for in vitro transcription of the aptamers were prepared by primer extension of two oligo DNAs using Q5 High-Fidelity DNA Polymerase (NEB). AC17-4 RNA aptamer and its mutants containing 3′ poly(A) tail (Table 4) were synthesized by in vitro transcription using ScriptMAX Thermo T7 Transcription Kit (TOYOBO) according to the manufacturer's instructions. The reaction products were treated with 2 U TURBO DNase (Thermo Fisher Scientific) for 30 min at 37° C. and purified with RNA Clean & Concentrator-25 Kit (Zymo Research). RNA concentrations were determined by absorbance at 260 nm according to OligoCalc^54. RNA solutions (~3.6 μM) were prepared in water and denatured by heating at 80° C. for 3 min. After cooling at room temperature for few minutes, the RNA solutions were diluted with an equal volume of high salt buffer (10 mM Tris-HCl, pH 7.5, 1 M NaCl, 1 mM EDTA). Stock solutions of ASP2905 and ASP7967 in DMSO (20 mM, fumaric acid adduct, Astellas Pharma, Inc.) were prepared based on the weight. […] An aptamer ligand was injected at 30 μl min^−1 for 120 s to monitor association, and then the dissociation kinetics was monitored for 180 s in the SPR running buffer. […] The raw data were analysed by Biacore T200 Evaluation Software 1.0 using 1:1 Langmuir interaction model. […] Dissociation constant (KD) was determined from the ratio of the association and the dissociation rate constants (KD=koff/kon) or by equilibrium analysis. […]

Another assay concerns the target cpAC17-4 RNA aptamer. Kind of assay: Affinity measurement by SPR, cpAC17-4 immobilized chip. The settings on record: cpAC17-4 with 3′ poly(A) tail. The class given is binding. The protocol: Affinity measurements of the aptamers with the ligands by SPR were performed as described by Chang et al.^53 with some modifications. Experiments were performed on Biacore T200 (Cytiva) at 25° C. For immobilization of the capture DNA (5′-/5AmMC6/[…]-3′ (SEQ ID NO: 32),/5AmMC6/: 5′ amino modifier C6, IDT), 1×HBS-N (10 mM HEPES, pH 7.4, 150 mM NaCl) was used as the running buffer. CM5 chip surface was washed by two injections of NaOH/NaCl solution (25 mM NaOH, 1 M NaCl) at 20 μl min^−1 for 30 s. […]
The dsDNA templates for in vitro transcription of the aptamers were prepared by primer extension of two oligo DNAs using Q5 High-Fidelity DNA Polymerase (NEB). […] RNA concentrations were determined by absorbance at 260 nm according to OligoCalc^54. […] An aptamer ligand was injected at 30 μl min^−1 for 120 s to monitor association, and then the dissociation kinetics was monitored for 180 s in the SPR running buffer. […] The raw data were analysed by Biacore T200 Evaluation Software 1.0 using 1:1 Langmuir interaction model. […] Dissociation constant (KD) was determined from the ratio of the association and the dissociation rate constants (KD=koff/kon) or by equilibrium analysis. […]

Assay [1] relates to hEPO secretion from HEK293 cells. Kind of assay: In vitro hEPO assay (ELISA), AAV vector plasmids in HEK293 cells. Format: cell-based, human. The protocol: For the hEPO ELISA assay in FIG. 9b, HEK293 cells were trypsinized and diluted to 2.0×10^5 cells ml^−1 and 100 μl per well were seeded onto a 96-well collagen plate. Cells in each well were transfected with 100 ng of the pAAV-CMV-hEPO-p3-d pAAV-CMV-hEPO-control, pAAV-MCS-based plasmids encoding human EPO with or without CPP-a8c-AC17-4 riboswitch using 0.3 μl of TransIT-293 Transfection Reagent according to the manufacturer's instructions. The medium in each well was replaced with fresh medium with (up to 10 μM) or without ASP7967 5 h after transfection. At 24 h after transfection, the medium in each well was collected and stored at −20° C. To measure hEPO concentrations, the medium was diluted 50-fold by PBS and further diluted 50-fold by the specimen diluent buffer included in the ELISA kit. The diluted samples were measured using Human Erythropoietin/EPO Quantikine ELISA Kit (R&D systems, Inc.) and Infinite M200 PRO microplate reader (TECAN).
Then, a8c-AC17-4-CPP was inserted into the 3′ UTR region of hEPO gene expressed from the CMV promoter in a plasmid containing AAV2 inverted terminal repeats (ITR) (pAAV-CMV-hEPO-a8c-AC17-4-CPP) (FIG. 9a). The plasmid pAAV-CMV-hEPO-a8c-AC17-4-CPP was transfected into HEK293 cells in the absence or presence (0.1~10 μM) of ASP7967. Two days after transfection, hEPO concentrations in the culture medium were measured by ELISA. […]

A word on the Kd: it is the equilibrium constant for the complex coming apart. For `Fc1ccc(Nc2nc(NCc3ncccn3)nc(Nc3ccccc3)n2)cc1` [ASP2905, reference compound], the Kd at AC17-4 RNA aptamer was determined as 7.7 nM; at cpAC17-4 RNA aptamer, 30 nM. Moreover, the “affinity for AC17-4 (in words)” value with AC17-4 RNA aptamer is reported as “comparable affinity”.
Turning to `Fc1ccc(Nc2nc(NCc3ncccn3)nc(Nc3ccc(F)cc3)n2)cc1` [ASP7967], on AC17-4 RNA aptamer, the Kd stood at 12 nM and the “affinity for AC17-4 (in words)” value is on record as “comparable affinity”. The “hEPO level in medium relative to control plasmid” value in assay [1] (10 μM ASP7967, pAAV-CMV-hEPO-a8c-AC17-4-CPP) is reported as 29%. In assay [1] (Homo sapiens, HEK293, 24 h, read-out: induction of hEPO), the fold induction at 10 µM turned out to be 10.
